{"source": "the supplement of paper PMC10307832", "experiment_in_all_cases": "relative viability (nuclei count vs DMSO), 5 days (fraction); higher = more cells survive", "key": {"NCI-H2009": {"test_system": "NCI-H2009", "how_it_was_run": "(§1)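 Lung cancer cell lines were seeded in 1536-well plates and dosed by pin tool the next day, with either a single drug or a fixed anchor-drug dose combined with five library-drug doses (not always all listed) spaced in √10 steps. Five days later, one step fixed the cells and stained their nuclei (final 0.05% Triton X-100, 1% formaldehyde, 1 ug/ml Hoechst), and nuclei were counted on 4× images. Relative viability is the nuclei count in treated wells divided by the count in vehicle wells, and each value is the median of duplicate plates.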"}, "COR-L23": {"test_system": "COR-L23", "how_it_was_run": "as §1"}, "HCC-827": {"test_system": "HCC-827", "how_it_was_run": "as §1"}, "LC-2-ad": {"test_system": "LC-2-ad", "how_it_was_run": "as §1"}, "UMC-11": {"test_system": "UMC-11", "how_it_was_run": "as §1"}, "NCI-H1437": {"test_system": "NCI-H1437", "how_it_was_run": "as §1"}, "PC-3 [JPC-3]": {"test_system": "PC-3 [JPC-3]", "how_it_was_run": "as §1"}, "PC-14": {"test_system": "PC-14", "how_it_was_run": "as §1"}, "NCI-H23": {"test_system": "NCI-H23", "how_it_was_run": "as §1"}, "NCI-H2085": {"test_system": "NCI-H2085", "how_it_was_run": "as §1"}, "H3255": {"test_system": "H3255", "how_it_was_run": "as §1"}, "NCI-H2087": {"test_system": "NCI-H2087", "how_it_was_run": "as §1"}, "HCC-15": {"test_system": "HCC-15", "how_it_was_run": "as §1"}, "HCC-366": {"test_system": "HCC-366", "how_it_was_run": "as §1"}, "SK-MES-1": {"test_system": "SK-MES-1", "how_it_was_run": "as §1"}, "NCI-H1975": {"test_system": "NCI-H1975", "how_it_was_run": "as §1"}, "NCI-H2228": {"test_system": "NCI-H2228", "how_it_was_run": "as §1"}, "NCI-H1666": {"test_system": "NCI-H1666", "how_it_was_run": "as §1"}, "LXF-289": {"test_system": "LXF-289", "how_it_was_run": "as §1"}}}
{"molecule": "CCNC(=O)c1noc(-c2cc(C(C)C)c(O)cc2O)c1-c1ccc(CN2CCOCC2)cc1", "note": "[Luminespib] + CC1(C)CCC(c2ccc(Cl)cc2)=C(CN2CCN(c3ccc(C(=O)NS(=O)(=O)c4ccc(N[C@H](CCN5CCOCC5)CSc5ccccc5)c(S(=O)(=O)C(F)(F)F)c4)cc3)CC2)C1 [Navitoclax] (partner 0.5 µM)", "values": [{"measurement": "relative viability", "setting": "NCI-H2009; first compound 0.002 µM", "value": 1.17}, {"measurement": "relative viability", "setting": "NCI-H2009; first compound 0.006325 µM", "value": 1.08}, {"measurement": "relative viability", "setting": "NCI-H2009; first compound 0.02 µM", "value": 1.21}, {"measurement": "relative viability", "setting": "NCI-H2009; first compound 0.06325 µM", "value": 0.72}, {"measurement": "relative viability", "setting": "NCI-H2009; first compound 0.2 µM", "value": 0.0895}, {"measurement": "relative viability", "setting": "COR-L23; first compound 0.002 µM", "value": 1.14}, {"measurement": "relative viability", "setting": "COR-L23; first compound 0.006325 µM", "value": 0.885}, {"measurement": "relative viability", "setting": "COR-L23; first compound 0.02 µM", "value": 1}, {"measurement": "relative viability", "setting": "COR-L23; first compound 0.06325 µM", "value": 0.0758}, {"measurement": "relative viability", "setting": "COR-L23; first compound 0.2 µM", "value": 0.0617}, {"measurement": "relative viability", "setting": "HCC-827; first compound 0.002 µM", "value": 1.07}, {"measurement": "relative viability", "setting": "HCC-827; first compound 0.006325 µM", "value": 1.02}, {"measurement": "relative viability", "setting": "HCC-827; first compound 0.02 µM", "value": 1.04}, {"measurement": "relative viability", "setting": "HCC-827; first compound 0.06325 µM", "value": 1.01}, {"measurement": "relative viability", "setting": "HCC-827; first compound 0.2 µM", "value": 1}, {"measurement": "relative viability", "setting": "LC-2-ad; first compound 0.002 µM", "value": 0.41}, {"measurement": "relative viability", "setting": "LC-2-ad; first compound 0.006325 µM", "value": 0.483}, {"measurement": "relative viability", "setting": "LC-2-ad; first compound 0.02 µM", "value": 0.516}, {"measurement": "relative viability", "setting": "LC-2-ad; first compound 0.06325 µM", "value": 0.0848}, {"measurement": "relative viability", "setting": "LC-2-ad; first compound 0.2 µM", "value": 0.126}, {"measurement": "relative viability", "setting": "UMC-11; first compound 0.002 µM", "value": 0.305}, {"measurement": "relative viability", "setting": "UMC-11; first compound 0.006325 µM", "value": 0.349}, {"measurement": "relative viability", "setting": "UMC-11; first compound 0.02 µM", "value": 0.224}, {"measurement": "relative viability", "setting": "UMC-11; first compound 0.06325 µM", "value": 0.148}, {"measurement": "relative viability", "setting": "UMC-11; first compound 0.2 µM", "value": 0.108}, {"measurement": "relative viability", "setting": "NCI-H1437; first compound 0.002 µM", "value": 1.06}, {"measurement": "relative viability", "setting": "NCI-H1437; first compound 0.006325 µM", "value": 1.07}, {"measurement": "relative viability", "setting": "NCI-H1437; first compound 0.02 µM", "value": 1.16}, {"measurement": "relative viability", "setting": "NCI-H1437; first compound 0.06325 µM", "value": 0.318}, {"measurement": "relative viability", "setting": "NCI-H1437; first compound 0.2 µM", "value": 0.128}, {"measurement": "relative viability", "setting": "PC-3 [JPC-3]; first compound 0.002 µM", "value": 0.818}, {"measurement": "relative viability", "setting": "PC-3 [JPC-3]; first compound 0.006325 µM", "value": 0.81}, {"measurement": "relative viability", "setting": "PC-3 [JPC-3]; first compound 0.02 µM", "value": 0.648}, {"measurement": "relative viability", "setting": "PC-3 [JPC-3]; first compound 0.06325 µM", "value": 0.847}, {"measurement": "relative viability", "setting": "PC-3 [JPC-3]; first compound 0.2 µM", "value": 0.739}, {"measurement": "relative viability", "setting": "PC-14; first compound 0.002 µM", "value": 0.996}, {"measurement": "relative viability", "setting": "PC-14; first compound 0.006325 µM", "value": 0.945}, {"measurement": "relative viability", "setting": "PC-14; first compound 0.02 µM", "value": 1.17}, {"measurement": "relative viability", "setting": "PC-14; first compound 0.06325 µM", "value": 0.0977}, {"measurement": "relative viability", "setting": "PC-14; first compound 0.2 µM", "value": 0.128}, {"measurement": "relative viability", "setting": "NCI-H23; first compound 0.002 µM", "value": 1.08}, {"measurement": "relative viability", "setting": "NCI-H23; first compound 0.006325 µM", "value": 0.793}, {"measurement": "relative viability", "setting": "NCI-H23; first compound 0.02 µM", "value": 0.625}, {"measurement": "relative viability", "setting": "NCI-H23; first compound 0.06325 µM", "value": 0.142}, {"measurement": "relative viability", "setting": "NCI-H23; first compound 0.2 µM", "value": 0.13}, {"measurement": "relative viability", "setting": "NCI-H2085; first compound 0.002 µM", "value": 1.15}, {"measurement": "relative viability", "setting": "NCI-H2085; first compound 0.006325 µM", "value": 1.13}, {"measurement": "relative viability", "setting": "NCI-H2085; first compound 0.02 µM", "value": 1.14}, {"measurement": "relative viability", "setting": "NCI-H2085; first compound 0.06325 µM", "value": 0.677}, {"measurement": "relative viability", "setting": "NCI-H2085; first compound 0.2 µM", "value": 0.503}, {"measurement": "relative viability", "setting": "H3255; first compound 0.002 µM", "value": 0.517}, {"measurement": "relative viability", "setting": "H3255; first compound 0.006325 µM", "value": 0.511}, {"measurement": "relative viability", "setting": "H3255; first compound 0.02 µM", "value": 0.272}, {"measurement": "relative viability", "setting": "H3255; first compound 0.06325 µM", "value": 0.536}, {"measurement": "relative viability", "setting": "H3255; first compound 0.2 µM", "value": 0.112}, {"measurement": "relative viability", "setting": "NCI-H2087; first compound 0.002 µM", "value": 1.03}, {"measurement": "relative viability", "setting": "NCI-H2087; first compound 0.006325 µM", "value": 0.871}, {"measurement": "relative viability", "setting": "NCI-H2087; first compound 0.02 µM", "value": 0.911}, {"measurement": "relative viability", "setting": "NCI-H2087; first compound 0.06325 µM", "value": 0.202}, {"measurement": "relative viability", "setting": "NCI-H2087; first compound 0.2 µM", "value": 0.202}, {"measurement": "relative viability", "setting": "HCC-15; first compound 0.002 µM", "value": 0.647}, {"measurement": "relative viability", "setting": "HCC-15; first compound 0.006325 µM", "value": 0.708}, {"measurement": "relative viability", "setting": "HCC-15; first compound 0.02 µM", "value": 0.755}, {"measurement": "relative viability", "setting": "HCC-15; first compound 0.06325 µM", "value": 0.44}, {"measurement": "relative viability", "setting": "HCC-15; first compound 0.2 µM", "value": 0.419}, {"measurement": "relative viability", "setting": "HCC-366; first compound 0.002 µM", "value": 1.11}, {"measurement": "relative viability", "setting": "HCC-366; first compound 0.006325 µM", "value": 0.981}, {"measurement": "relative viability", "setting": "HCC-366; first compound 0.02 µM", "value": 0.966}, {"measurement": "relative viability", "setting": "HCC-366; first compound 0.06325 µM", "value": 0.0276}, {"measurement": "relative viability", "setting": "HCC-366; first compound 0.2 µM", "value": 0.0215}, {"measurement": "relative viability", "setting": "SK-MES-1; first compound 0.002 µM", "value": 1.27}, {"measurement": "relative viability", "setting": "SK-MES-1; first compound 0.006325 µM", "value": 1.24}, {"measurement": "relative viability", "setting": "SK-MES-1; first compound 0.02 µM", "value": 1.28}, {"measurement": "relative viability", "setting": "SK-MES-1; first compound 0.06325 µM", "value": 0.149}, {"measurement": "relative viability", "setting": "SK-MES-1; first compound 0.2 µM", "value": 0.131}, {"measurement": "relative viability", "setting": "NCI-H1975; first compound 0.002 µM", "value": 1.17}, {"measurement": "relative viability", "setting": "NCI-H1975; first compound 0.006325 µM", "value": 1.06}, {"measurement": "relative viability", "setting": "NCI-H1975; first compound 0.02 µM", "value": 0.877}, {"measurement": "relative viability", "setting": "NCI-H1975; first compound 0.06325 µM", "value": 0.218}, {"measurement": "relative viability", "setting": "NCI-H1975; first compound 0.2 µM", "value": 0.142}, {"measurement": "relative viability", "setting": "NCI-H2228; first compound 0.002 µM", "value": 0.836}, {"measurement": "relative viability", "setting": "NCI-H2228; first compound 0.006325 µM", "value": 0.637}, {"measurement": "relative viability", "setting": "NCI-H2228; first compound 0.02 µM", "value": 0.614}, {"measurement": "relative viability", "setting": "NCI-H2228; first compound 0.06325 µM", "value": 0.11}, {"measurement": "relative viability", "setting": "NCI-H2228; first compound 0.2 µM", "value": 0.144}, {"measurement": "relative viability", "setting": "NCI-H1666; first compound 0.002 µM", "value": 0.807}, {"measurement": "relative viability", "setting": "NCI-H1666; first compound 0.006325 µM", "value": 0.97}, {"measurement": "relative viability", "setting": "NCI-H1666; first compound 0.02 µM", "value": 1.29}, {"measurement": "relative viability", "setting": "NCI-H1666; first compound 0.06325 µM", "value": 0.913}, {"measurement": "relative viability", "setting": "NCI-H1666; first compound 0.2 µM", "value": 0.554}, {"measurement": "relative viability", "setting": "LXF-289; first compound 0.002 µM", "value": 0.951}, {"measurement": "relative viability", "setting": "LXF-289; first compound 0.006325 µM", "value": 0.937}, {"measurement": "relative viability", "setting": "LXF-289; first compound 0.02 µM", "value": 1.05}, {"measurement": "relative viability", "setting": "LXF-289; first compound 0.06325 µM", "value": 0.851}, {"measurement": "relative viability", "setting": "LXF-289; first compound 0.2 µM", "value": 0.302}]}
